# In ChEMBL document CHEMBL1671662, “In vitro activities of telavancin and six comparator agents against anaerobic bacterial isolates” (2009):
# Legend:
# Type in all cases: functional
# [1] = tested on: Enterocloster clostridioformis; test: Antibacterial activity against Clostridium clostridioforme by CLSI M11-A6 agar dilution method
# [2] = tested on: Clostridium hathewayi; test: Antibacterial activity against Clostridium hathewayi by CLSI M11-A6 agar dilution method; details: Hungatella hathewayi
# [3] = tested on: Clostridium perfringens; test: Antibacterial activity against Clostridium perfringens by CLSI M11-A6 agar dilution method
# [4] = tested on: Thomasclavelia ramosa; test: Antibacterial activity against Clostridium ramosum by CLSI M11-A6 agar dilution method
# [5] = tested on: Clostridium subterminale; test: Antibacterial activity against Clostridium subterminale by CLSI M11-A6 agar dilution method
# [6] = tested on: Clostridium bartlettii; test: Antibacterial activity against Clostridium bartlettii by CLSI M11-A6 agar dilution method; details: Intestinibacter bartlettii
# [7] = tested on: Clostridium beijerinckii; test: Antibacterial activity against Clostridium beijerinckii by CLSI M11-A6 agar dilution method
# [8] = tested on: Flavonifractor plautii; test: Antibacterial activity against Clostridium orbiscindens by CLSI M11-A6 agar dilution method
# [9] = tested on: Clostridium paraputrificum; test: Antibacterial activity against Clostridium paraputrificum by CLSI M11-A6 agar dilution method
# [10] = tested on: Clostridium scindens; test: Antibacterial activity against Clostridium scindens by CLSI M11-A6 agar dilution method
# [11] = tested on: Clostridium sporogenes; test: Antibacterial activity against Clostridium sporogenes by CLSI M11-A6 agar dilution method
# [12] = tested on: Clostridium tertium; test: Antibacterial activity against Clostridium tertium by CLSI M11-A6 agar dilution method
# [13] = tested on: Actinomyces naeslundii; test: Antibacterial activity against Actinomyces naeslundii by CLSI M11-A6 agar dilution method
# [14] = tested on: Bifidobacterium adolescentis; test: Antibacterial activity against Bifidobacterium adolescentis by CLSI M11-A6 agar dilution method
# [15] = tested on: Bifidobacterium longum; test: Antibacterial activity against Bifidobacterium longum by CLSI M11-A6 agar dilution method
# [16] = tested on: Bifidobacterium pseudolongum; test: Antibacterial activity against Bifidobacterium pseudolongum by CLSI M11-A6 agar dilution method
# [17] = tested on: Collinsella aerofaciens; test: Antibacterial activity against Colinsella aerofaciens by CLSI M11-A6 agar dilution method
# [18] = tested on: Propionibacterium propionicum; test: Antibacterial activity against Propionibacterium propionicus by CLSI M11-A6 agar dilution method; details: Arachnia propionica
# [19] = tested on: Ruminococcus gnavus; test: Antibacterial activity against Ruminococcus gnavus by CLSI M11-A6 agar dilution method; details: Mediterraneibacter gnavus
# [20] = tested on: Ruminococcus albus; test: Antibacterial activity against Ruminococcus albus by CLSI M11-A6 agar dilution method; details: Hominimerdicola alba
# [21] = tested on: Ruminococcus lactaris; test: Antibacterial activity against Ruminococcus lactaris by CLSI M11-A6 agar dilution method
# [22] = tested on: Ruminococcus torques; test: Antibacterial activity against Ruminococcus torques by CLSI M11-A6 agar dilution method; details: Mediterraneibacter torques
# [23] = tested on: Ruminococcus sp.; test: Antibacterial activity against Ruminococcus sp. by CLSI M11-A6 agar dilution method
# [24] = tested on: Finegoldia magna; test: Antibacterial activity against Finegoldia magna by CLSI M11-A6 agar dilution method
# [25] = tested on: Peptoniphilus asaccharolyticus; test: Antibacterial activity against Peptoniphilus asaccharolyticus by CLSI M11-A6 agar dilution method
# [26] = tested on: Parvimonas micra; test: Antibacterial activity against Peptostreptococcus micros by CLSI M11-A6 agar dilution method
# [27] = tested on: Streptococcus anginosus; test: Antibacterial activity against Streptococcus anginosus by CLSI M11-A6 agar dilution method
# [28] = tested on: Streptococcus constellatus; test: Antibacterial activity against Streptococcus constellatus by CLSI M11-A6 agar dilution method
# [29] = tested on: Streptococcus intermedius; test: Antibacterial activity against Streptococcus intermedius by CLSI M11-A6 agar dilution method
# [30] = tested on: Parabacteroides distasonis; test: Antibacterial activity against Parabacteroides distasonis by CLSI M11-A6 agar dilution method
# [31] = tested on: Parabacteroides merdae; test: Antibacterial activity against Parabacteroides merdae by CLSI M11-A6 agar dilution method
# [32] = tested on: Bacteroides thetaiotaomicron; test: Antibacterial activity against Bacteroides thetaiotaomicron by CLSI M11-A6 agar dilution method
# [33] = tested on: Phocaeicola vulgatus; test: Antibacterial activity against Bacteroides vulgatus by CLSI M11-A6 agar dilution method
# [34] = tested on: Odoribacter splanchnicus; test: Antibacterial activity against Bacteroides splanchnicus by CLSI M11-A6 agar dilution method
# [35] = tested on: Bilophila wadsworthia; test: Antibacterial activity against Bilophila wadsworthia by CLSI M11-A6 agar dilution method
# [36] = tested on: Fusobacterium mortiferum; test: Antibacterial activity against Fusobacterium mortiferum by CLSI M11-A6 agar dilution method
# [37] = tested on: Fusobacterium varium; test: Antibacterial activity against Fusobacterium varium by CLSI M11-A6 agar dilution method
# [38] = tested on: Prevotella bivia; test: Antibacterial activity against Prevotella bivia by CLSI M11-A6 agar dilution method
# [39] = tested on: Prevotella denticola; test: Antibacterial activity against Prevotella P denticola by CLSI M11-A6 agar dilution method
# [40] = tested on: Prevotella disiens; test: Antibacterial activity against Prevotella P disiens by CLSI M11-A6 agar dilution method
# [41] = tested on: Prevotella nigrescens; test: Antibacterial activity against Prevotella nigrescens by CLSI M11-A6 agar dilution method
# [42] = tested on: Hoylesella oralis; test: Antibacterial activity against Prevotella oralis by CLSI M11-A6 agar dilution method
# [43] = tested on: Sutterella wadsworthensis; test: Antibacterial activity against Sutterella wadsworthensis by CLSI M11-A6 agar dilution method
compound,measurement,setting,value
CCC[C@@H]1C[C@@H](C(=O)N[C@@H]([C@H]2O[C@H](SC)[C@H](O)[C@@H](O)[C@H]2O)[C@H](C)Cl)N(C)C1 [CLINDAMYCIN],MIC90,[1],2 µg/mL
same,MIC50,[2],0.5 µg/mL
same,MIC90,[2],2 µg/mL
same,MIC50,[3],0.5 µg/mL
same,MIC90,[3],2 µg/mL
same,MIC50,[4],4 µg/mL
same,MIC90,[4],8 µg/mL
same,MIC50,[5],0.5 µg/mL
same,MIC90,[5],8 µg/mL
same,MIC90,[6],4 µg/mL
same,MIC90,[7],4 µg/mL
same,MIC90,[8],4 µg/mL
same,MIC90,[9],4 µg/mL
same,MIC90,[10],4 µg/mL
same,MIC90,[11],4 µg/mL
same,MIC90,[12],4 µg/mL
same,MIC50,[13],≤ 0.12 µg/mL
same,MIC90,[13],1 µg/mL
same,MIC50,[14],≤ 0.12 µg/mL
same,MIC90,[14],1 µg/mL
same,MIC50,[15],≤ 0.12 µg/mL
same,MIC90,[15],1 µg/mL
same,MIC50,[16],≤ 0.12 µg/mL
same,MIC90,[16],1 µg/mL
same,MIC50,[17],≤ 0.12 µg/mL
same,MIC90,[17],1 µg/mL
same,MIC50,[18],≤ 0.12 µg/mL
same,MIC90,[18],1 µg/mL
same,MIC50,[19],≤ 0.12 µg/mL
same,MIC90,[19],0.25 µg/mL
same,MIC50,[20],≤ 0.12 µg/mL
same,MIC90,[20],2 µg/mL
same,MIC50,[21],≤ 0.12 µg/mL
same,MIC90,[21],2 µg/mL
same,MIC50,[22],≤ 0.12 µg/mL
same,MIC90,[22],2 µg/mL
same,MIC90,[23],> 128 µg/mL
same,MIC90,[24],> 128 µg/mL
same,MIC90,[25],> 128 µg/mL
same,MIC90,[26],> 128 µg/mL
same,MIC90,[27],0.5 µg/mL
same,MIC90,[28],0.5 µg/mL
same,MIC90,[29],0.5 µg/mL
same,MIC50,[30],2 µg/mL
same,MIC90,[30],64 µg/mL
same,MIC50,[31],2 µg/mL
same,MIC90,[31],64 µg/mL
same,MIC50,[32],4 µg/mL
same,MIC90,[32],> 128 µg/mL
same,MIC50,[33],> 128 µg/mL
same,MIC90,[33],> 128 µg/mL
same,MIC50,[34],≤ 0.12 µg/mL
same,MIC90,[34],> 128 µg/mL
same,MIC50,[35],0.5 µg/mL
same,MIC90,[35],1 µg/mL
same,MIC50,[36],1 µg/mL
same,MIC90,[36],32 µg/mL
same,MIC50,[37],1 µg/mL
same,MIC90,[37],32 µg/mL
same,MIC,[38],≤ 0.12 µg/mL
same,MIC50,[38],≤ 0.12 µg/mL
same,MIC90,[38],≤ 0.12 µg/mL
same,MIC,[39],≤ 0.12 µg/mL
same,MIC50,[39],≤ 0.12 µg/mL
same,MIC90,[39],≤ 0.12 µg/mL
same,MIC,[40],≤ 0.12 µg/mL
same,MIC50,[40],≤ 0.12 µg/mL
same,MIC90,[40],≤ 0.12 µg/mL
same,MIC,[41],≤ 0.12 µg/mL
same,MIC50,[41],≤ 0.12 µg/mL
same,MIC90,[41],≤ 0.12 µg/mL
same,MIC,[42],≤ 0.12 µg/mL
same,MIC50,[42],≤ 0.12 µg/mL
same,MIC90,[42],≤ 0.12 µg/mL
same,MIC50,[43],16 µg/mL
same,MIC90,[43],128 µg/mL
